In patent US5290689A, “New cyclic FR-900520 microbial biotransformation agent” (Merck & Co., Inc., priority 1992, dated 1994):
Entries after “also recorded” stand apart in the source; their conditions may differ.

Columns and labels:
[1] = reputed; EPO Publication No. 0184162; cited from earlier work
[2] = tested on: mouse T lymphocytes (Splenic T-cells stimulated with ionomycin + PMA); experiment: T-cell proliferation assay (ionomycin + PMA stimulated, tritiated thymidine uptake); format: cell-based, mouse (C57B1/6)
Description: The principle of this assay is to measure the proliferation of mouse T lymphocytes stimulated with the combination of ionomycin plus PMA. A positive sample, e.g. FK-506, in this assay will inhibit T-cell proliferation, as indicated by reduced tritiated thymidine uptake.
T-Cell Proliferation Assay
Purified Compound I, as prepared by HPLC above, was dissolved in absolute ethanol at 1 mg/ml.
Spleens from C57B1/6 mice were taken under sterile conditions and gently dissociated in ice-cold RPMI 1640 culture medium (GIBCO, Grand Island, N.Y.) supplemented with 10% heat-inactivated fetal calf serum (GIBCO). Cells were pelleted by centrifugation at 1500 rpm for 8 minutes. Contaminating red cells were removed by treating the pellet with ammonium chloride lysing buffer (GIBCO) for 2 minutes at 4° C. […]
Purified T lymphocytes were resuspended at 2.5×10^5 cells/ml in complete culture medium composed of RPMI 1640 medium with 10% heat-inactivated fetal calf serum, […], 1 mM sodium pyruvate, 2×10^-5 M 2-mercaptoethanol and 50 μg/ml gentamycin. […] Radioactivity of filter discs corresponding to individual wells was measured by standard liquid scintillation counting methods (Betacounter). Mean counts per minute of replicate wells were calculated and the results expressed as percent inhibition of tritiated thymidine uptake (proliferation) as follows: [formula] […]

| SMILES | effectiveness as immunosuppressant relative to cyclosporin [1] | Inhibition of T-cell proliferation on addition of IL2 ([2]; 50 units/ml recombinant IL2 added at the initiation of culture) | immunosuppressant activity (inhibition of T-cell activation) ([2]; qualitative) |
| --- | --- | --- | --- |
| C=CC[C@@H]1/C=C(\C)C[C@H](C)C[C@H](OC)[C@H]2O[C@@](O)(C(=O)C(=O)N3CCCC[C@H]3C(=O)O[C@H](/C(C)=C/[C@@H]3CC[C@@H](O)[C@H](OC)C3)[C@H](C)[C@@H](O)CC1=O)[C@H](C)C[C@@H]2OC [FK-506] | 100 times |  |  |
| CC[C@@H]1C=C2COC1(O)C[C@H](O)[C@@H](C)[C@@H](/C(C)=C/[C@@H]1CC[C@@H](O)[C@H](OC)C1)OC(=O)[C@@H]1CCCCN1C(=O)C(=O)[C@]1(O)O[C@H]([C@@H](OC)C[C@@H](C)C2)[C@@H](OC)C[C@H]1C [Compound I] |  | reversed | positive inhibition of T-cell activation; also recorded: positive immunosuppressive activity |
